Values joined by “and” are separate entries in the source; they are usually repeats but may differ in a detail not shown here. Equal values may be shown once.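 Cultured in 96-well plates, cells were exposed to test compound for 48 hours across five concentrations. Abbreviation: GI50, concentration required for 50% inhibition of growth. TGI is the concentration that stops growth completely.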
Columns and labels:
Experiment in all cases: inhibition of tumour cell growth, NCI panel, 48 h
M19-MEL melanoma = system: M19-MEL melanoma
SF-539 CNS = system: SF-539 CNS
UACC-62 melanoma = system: UACC-62 melanoma
MOLT-4 leukemia = system: MOLT-4 leukemia
K-562 leukemia = system: K-562 leukemia
UO-31 renal = system: UO-31 renal
SK-MEL-28 melanoma = system: SK-MEL-28 melanoma
HOP-92 NSCLC = system: HOP-92 NSCLC
HS 578T breast = system: HS 578T breast

Structure (SMILES) | TGI (M19-MEL melanoma) [µM] | TGI (SF-539 CNS) | TGI (UACC-62 melanoma) | TGI (MOLT-4 leukemia) | TGI (K-562 leukemia) [µM] | TGI (UO-31 renal) | TGI (SK-MEL-28 melanoma) | TGI (HOP-92 NSCLC) | GI50 (SF-539 CNS) | GI50 (UACC-62 melanoma) | GI50 (MOLT-4 leukemia) | GI50 (HS 578T breast) | TGI (HS 578T breast) | GI50 (K-562 leukemia) [µM] | GI50 (UO-31 renal) | GI50 (SK-MEL-28 melanoma) | GI50 (HOP-92 NSCLC)
CC(C)N1CC2CC(CN(C(=O)c3ccc(Cl)cc3)C2)C1 | > 100 | > 100 µM | > 100 µM | > 100 µM | > 100 | > 100 µM | > 100 µM | > 100 µM |  |  |  |  |  |  |  |  | 
CCN(CC)CCOc1nc2ccccc2c2c1-c1ccc(OC)cc1C2=O |  | 4.25 µM | 4.48 µM | 0.924 µM | 1.19 | 1.41 µM | 3.29 µM | > 28.6 µM | 1.34 µM | 1.7 µM | 0.251 µM | 1.19 µM | 5.78 µM | 0.276 | 0.13 µM | 1.63 µM | 2.09 µM
O=C1C2=C(C(=O)c3ccccc31)C(O)(S(=O)(=O)O)C(O)(S(=O)(=O)O)C1N=CC=CC21 (configuration not stated) |  | 19.9 µM and 18.1 µM | 19.4 µM and 18.7 µM | > 100 µM and 34.4 µM | > 100 | 27 µM and 13 µM | 96.1 µM and 28.6 µM | 26.9 µM and 6.81 µM | 4.01 µM and 3.89 µM | 6.17 µM and 4.52 µM | 7.06 µM and 4.38 µM | 4.93 µM and 3.71 µM | 75.7 µM and 29.8 µM | 3.71 | 2.46 µM and 2.19 µM | 17 µM and 12.1 µM | 2.96 µM and 1.85 µM
Cc1[nH]nc(C(F)(F)F)c1Cc1sc2c(c1C(=O)N1C[C@](C)(O)CO1)c(=O)n(C)c(=O)n2C(C)C |  | > 100 µM | > 100 µM | > 100 µM | > 100 | > 100 µM | > 100 µM | > 100 µM | > 100 µM | > 100 µM | > 100 µM | > 100 µM | > 100 µM |  | > 100 µM | > 100 µM | > 100 µM
Cn1nc(C(F)(F)F)cc1-c1cc(Cl)c(OCc2ccc(Cl)cc2)c(-c2ccc(Cl)c(C(F)(F)F)c2)c1O |  | 3.26 µM | 2.51 µM | 2.39 µM | 5.08 | 3.51 µM | 3.53 µM | 2.1 µM | 1.07 µM | 0.91 µM | 1.01 µM | 0.975 µM | 2.92 µM | 0.312 | 1.12 µM | 1.14 µM | 0.554 µM
CC1=CC2(C)/C=C(C)/C=C\CC(O)/C=C3/C=CC(=C4C(=O)OC2(CC1C)C4=O)OC3 (configuration not stated) |  | 6.72 µM | 10.8 µM | > 20.4 µM | > 100 | 3.06 µM | 3.33 µM | 1.54 µM | 2.49 µM | 3.3 µM | 0.47 µM | 2.25 µM | 6.97 µM | 1.2 | 1.46 µM | 1.6 µM | 0.524 µM

From PubChem BioAssay (NCI)
